Experimental data: patent publication US8097637B2, “Benzoyl-piperidine derivatives as dual modulators of the 5-HT2A and D3 receptors” (Hoffmann-La Roche Inc., priority 2007, dated 2012)

Columns and labels:
[1] = target: T1, human D3 dopamine receptor (Homo sapiens, UniProt P35462); assay: Radioligand binding ([3H]-spiperone) to cloned human D3 receptor, HEK-293 EBNA cell membranes; details: 0.5 nM [3H]-spiperone, 1 h at RT, Cheng-Prusoff
T1 construct: expressed in transfected cells; host or cells: HEK-293 EBNA cells, transient transfection; membrane preparation
T1 sequence (P35462 whole entry): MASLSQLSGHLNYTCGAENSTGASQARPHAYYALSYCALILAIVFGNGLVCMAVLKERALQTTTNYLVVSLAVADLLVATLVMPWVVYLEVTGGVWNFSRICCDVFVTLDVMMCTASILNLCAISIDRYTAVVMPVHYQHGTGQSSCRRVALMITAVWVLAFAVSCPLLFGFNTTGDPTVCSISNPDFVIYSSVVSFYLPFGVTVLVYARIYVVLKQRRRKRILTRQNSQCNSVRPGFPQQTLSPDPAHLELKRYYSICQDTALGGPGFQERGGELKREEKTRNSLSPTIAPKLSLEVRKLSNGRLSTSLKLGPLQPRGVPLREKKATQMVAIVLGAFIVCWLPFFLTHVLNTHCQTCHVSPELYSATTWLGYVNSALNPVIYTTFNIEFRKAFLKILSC
Description: The ability of the compounds to bind to the 5-HT2A, D3 and D2 receptors was determined using radioligand binding to cloned receptors selectively expressed in HEK-293 EBNA cells.
(§1) Membrane Preparation for Human D2, Human D3 and Human 5-HT2A Receptors
(§2) HEK-293 EBNA cells were transiently transfected with expression plasmids encoding for the human D2 or D3 dopamine- or for the human 5-HT2A serotonin receptor, respectively. The cells were harvested 48 h post-transfection, washed three times with cold PBS and stored at −80° C. prior to use. The pellet was suspended in cold 50 mM Tris-HCl buffer containing 10 mM EDTA (pH 7.4) and homogenized with a Polytron (Kinematica AG, Basel, Switzerland) for 20-30 sec at 12.000 rpm. After centrifugation at 48.000×g for 30 min at 4° C., the pellet was resuspended in cold 10 mM Tris-HCl buffer containing 0.1 mM EDTA (pH 7.4), homogenized, and centrifuged as above. This pellet was further resuspended in a smaller volume of ice cold 10 mM Tris-HCl buffer containing 0.1 mM EDTA (pH 7.4) and homogenized with a Polytron for 20-30 sec at 12.000 rpm. The protein content of this homogenate was determined with the Bio-Rad (Bradford) Protein Assay (Biorad Laboratories GmbH, München, Germany) according to the instructions of the manufacturer using gamma globulin as the standard. This homogenate was stored at −80° C. in aliquots and thawed immediately prior to use.
(§3) Radioligand Binding Assay Conditions
(§4) Aliquots of membrane preparations were thawed at RT, resuspended in assay buffer (D2, D3: 50 mM Tris-HCl, 120 mM NaCl, 5 mM MgCl2, 1 mM EDTA, 5 mM KCl, 1.5 mM CaCl2, pH=7.4; 5-HT2A: 50 mM Tris-HCl, 10 mM MgCl2, 1 mM EGTA, pH=7.4), homogenized with a Polytron for 20-30 sec at 12.000 rpm and adjusted to a final concentration of approximately 7.5 μg protein/well (D2, D3) and 15 μg protein/well (5-HT2A), respectively.
(§5) The binding affinity (Ki) of the compounds was determined using radioligand binding. Membranes were incubated in a total volume of 200 μl with a fixed concentration of radioligand (final concentration approximately 0.7 nM [^3H]-spiperone for D2, 0.5 nM [^3H]-spiperone for D3, and 1.1 nM [^3H]-ketanserin for 5-HT2A) and ten concentrations of test compound in ranging between 10 μM-0.1 nM for 1 h at RT. At the end of the incubation, the reaction mixtures were filtered on to unifilter 96-well white microplates with bonded GF/C filters (Packard BioScience, Zürich, Switzerland; preincubated for 1 h in 0.1% polyethylenimine (PEI) in assay buffer) with a Filtermate 196 harvester (Packard BioScience) and washed 3 times with cold assay buffer. The nonspecific binding was determined with equally composed reaction mixtures in the presence of 10 μM unlabeled spiperone. Per well 45 μl of Microscint 40 (Perkin Elmer, Schwerzenbach, Switzerland) was added, plates for sealed, shaken for 20 min and counted for 3 min on a Topcount Microplate Scintillation Counter (Canberra Packard SA, Zürich, Switzerland) with quenching correction.
(§6) The CPM value for each duplicate of a concentration of competing compound was averaged (yl), then the % specific binding was calculated according to the equation (((yl-non-specific)/(total binding-non-specific))×100). Graphs were plotted with the % specific binding using XLfit, a curve fitting program that iteratively plots the data using Levenburg Marquardt algorithm. The single site competition analysis equation used was y=A+((B−A)/(1+((x/C)^D))), where y is the % specific binding, A is the minimum y, B is the maximum y, C is the IC50, x is the log10 of the concentration of the competing compound and D is the slope of the curve (the Hill Coefficient). […] The affinity constant (Ki) was calculated using the Cheng-Prusoff equation Ki=(IC50/1+([L]/Kd), where [L] is the concentration of radioligand and Kd is the dissociation constant of the radioligand at the receptor as determined by the saturation isotherm.

[2] = target: T2, human 5-HT2A serotonin receptor (Homo sapiens, UniProt P28223); assay: Radioligand binding ([3H]-ketanserin) to cloned human 5-HT2A receptor, HEK-293 EBNA cell membranes; details: 1.1 nM [3H]-ketanserin, 1 h at RT, Cheng-Prusoff
T2 construct: expressed in transfected cells; host or cells: HEK-293 EBNA cells, transient transfection; membrane preparation
T2 sequence (P28223 whole entry): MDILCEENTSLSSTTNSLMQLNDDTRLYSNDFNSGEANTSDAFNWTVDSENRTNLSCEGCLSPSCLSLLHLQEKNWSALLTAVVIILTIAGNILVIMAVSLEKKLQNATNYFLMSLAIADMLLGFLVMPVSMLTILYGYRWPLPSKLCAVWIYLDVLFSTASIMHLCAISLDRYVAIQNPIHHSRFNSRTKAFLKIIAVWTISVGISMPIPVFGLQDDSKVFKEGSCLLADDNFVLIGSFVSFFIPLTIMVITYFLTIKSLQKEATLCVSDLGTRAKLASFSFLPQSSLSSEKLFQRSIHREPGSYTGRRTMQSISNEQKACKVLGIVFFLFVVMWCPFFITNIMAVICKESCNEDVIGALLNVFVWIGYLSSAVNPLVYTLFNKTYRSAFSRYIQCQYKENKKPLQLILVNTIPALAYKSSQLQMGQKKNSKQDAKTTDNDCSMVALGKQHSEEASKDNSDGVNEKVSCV
Description: as §1
as §2, with “The” for “HEK-293 EBNA cells were transiently transfected with expression plasmids encoding for the human D2 or D3 dopamine- or for the human 5-HT2A serotonin receptor, respectively. The”
as §3, §4
The binding affinity (Ki) of the compounds was determined using radioligand binding. […] The nonspecific binding was determined with equally composed reaction mixtures in the presence of 10 μM unlabeled spiperone. Per well 45 μl of Microscint 40 (Perkin Elmer, Schwerzenbach, Switzerland) was added, plates for sealed, shaken for 20 min and counted for 3 min on a Topcount Microplate Scintillation Counter (Canberra Packard SA, Zürich, Switzerland) with quenching correction.
as §6

[3] = target: T3, human D2 dopamine receptor (Homo sapiens, UniProt P14416); assay: Radioligand binding ([3H]-spiperone) to cloned human D2 receptor, HEK-293 EBNA cell membranes; details: 0.7 nM [3H]-spiperone, 1 h at RT, Cheng-Prusoff
T3 construct: expressed in transfected cells; host or cells: HEK-293 EBNA cells, transient transfection; membrane preparation
T3 sequence (P14416 whole entry): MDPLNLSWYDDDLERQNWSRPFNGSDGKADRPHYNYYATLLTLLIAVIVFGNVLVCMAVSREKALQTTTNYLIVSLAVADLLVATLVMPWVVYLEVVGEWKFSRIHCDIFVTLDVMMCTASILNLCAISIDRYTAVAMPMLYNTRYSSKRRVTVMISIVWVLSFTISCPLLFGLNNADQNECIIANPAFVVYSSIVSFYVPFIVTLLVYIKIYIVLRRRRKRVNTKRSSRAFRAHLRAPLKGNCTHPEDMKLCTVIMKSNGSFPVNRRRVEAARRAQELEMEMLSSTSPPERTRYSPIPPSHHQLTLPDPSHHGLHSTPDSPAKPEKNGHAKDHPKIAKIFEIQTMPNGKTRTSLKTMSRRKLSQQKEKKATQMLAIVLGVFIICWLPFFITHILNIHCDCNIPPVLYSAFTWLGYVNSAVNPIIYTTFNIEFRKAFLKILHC
Description: as §1, §2, §3, §4, §5, §6

`CC(=O)N[C@H]1CC[C@H](CC(=O)N[C@H]2CC[C@H](CCN3CCC(C(=O)c4ccc(F)cc4)CC3)CC2)CC1` [Example 27, 2-trans (4-Acetylamino-cyclohexyl)-N-trans-(4-{2-[4-(4-fluoro-benzoyl)-piperidin-1-yl]-ethyl}-cyclohexyl)-acetamide] gave a Ki [1] of 44 nM, a Ki [2] of 34 nM and a Ki [3] of 2070 nM.
